The values below come from US5891462A, “Composition for transdermal administration of an estrogen” (Permatec N.V., priority 1996, dated 1999).

Values joined by “and” are separate entries in the source; they are usually repeats but may differ in a detail not shown here. Equal entries are not always repeated. “Also recorded” adds a separate entry of the source. Where two headings read alike, the source gives them in different places.

The conditions of data set [1]: transdermal; Balfour 1990; cited from earlier work.
For data set [2] the following is noted: cited from earlier work; for Enhancement factor: normalized skin permeation rate with/without enhancer.
The nature of the next data set: clinical. The arrangement: species or system postmenopausal women. Particulars: human, in vivo. The protocol: The duration of the study was 3 days, thus 3 dose application were applied. Blood samples were taken at 0 h (basal value), 2, 6, 12, 24, 30, 36, 48, 54, 60, and 72 hs after the initiation of the study. Estradiol and norethindrone serum levels were determined by time-resolved fluoroimmunoassay and by enzyme immunoassay respectively.

For data set [3] the following is noted: cited from earlier work.
A short description of data set [4]: In vitro permeation through abdominal guinea pig skin (vertical diffusion cell, HPLC). It counts as in vitro ADME. Particulars: for penetration enhancement at early and late times (in words): early 8 hs, late 16, 24 hs, occlusive. From the text: FIG. 3 an apparatus "Hanson P/N 57-VC" (vertical diffusion cell) is schematically represented 3 wherein:
The term "occlusive condition" used for the experimental tests carried out with the apparatus described in FIG. 3, means that the donor chamber (2) of the diffusion is closed by the top plate (3) i.e. not in communication with the external air. On the contrary the term "non occlusive condition" means that the top plate (3) has a hole allowing the free interaction between the formulation to be tested and the external air permitting the evaporation of the volatile solvents.
Furthermore, in vitro permeation experiments through abdominal guinea pig skin was made using the diffusion chamber that is schematically shown in FIG. 3.
Female guinea pigs, 8 to 16 months of age were shaved on their abdominal skin 72 hs. before sacrifice by cervical dislocation. […] A section of full thickness abdominal skin was surgically excised and mounted between the sections of a vertical diffusion cell having 1.77 sqcm of surface area, the epidermal facing up. A given amount of the pharmaceutical formulations exemplified above were spread over the epidermal layer whilst the dermal layer contact with a solution of sodium lauryl sulfate (SDS), at 34° C.
The experiments were conducted in two different conditions: in occlusive condition with a glass stopper, which avoid the evaporating of the volatile solvents, and in non occlusive condition, whereas the stopper used allow the evaporation of the volatile solvents.

For data set [5] the following is noted: Whitehead 1990; cited from earlier work.
[6] abbreviates: enhancer: Decylmethyl sulfoxide.

For the molecule `C[C@]12CC[C@@H]3c4ccc(O)cc4CC[C@H]3[C@@H]1CC[C@@H]2O` [Estradiol, 17-β-estradiol], in data set [1], the “effects on gonadotrophins, vaginal epithelium, bone resorption and menopausal symptoms” value is “comparable to those of oral and subcutaneous estrogens”; the “undesirable effects of oral estrogen on hepatic metabolism” value is “avoided”. Moreover, the Enhancement factor in data set [2] (enhancer: Azone) is 20.17. Further, in data set [2] (setting [6]), the Enhancement factor is 12.59. Besides, in data set [2] (enhancer: Propyl myristate), the Enhancement factor was 9.33. The Enhancement factor in data set [2] (enhancer: Propyl oleate) was 14.62. In addition, in “clinical”, the “Serum Levels of Estradiol (mean)” value is 6,37 pg/ml. In addition, in “clinical” (topical or ocular), the concentration at 2 h is 0.0328 ng/mL, the concentration at 6 h came out at 0.0205 ng/mL, the concentration at 12 h stood at 0.0268 ng/mL and the concentration at 24 h was determined as 0.0276 ng/mL. In the data set “clinical” (topical or ocular), this molecule gave a concentration at 30 h of 0.0393 ng/mL, a concentration at 36 h of 0.0303 ng/mL, a concentration at 48 h of 0.0359 ng/mL and a concentration at 54 h of 0.0652 ng/mL. In the data set “clinical” (topical or ocular), this molecule returned a concentration at 60 h of 0.0487 ng/mL and a concentration at 72 h of 0.0437 ng/mL. Also, the “therapeutically effective daily dose of estrogen” value in data set [3] (Powers 1985) was 40 to 50 µg/day. In addition, the “serum levels of estradiol required for clinical efficacy” value in data set [3] (reviewed by Powers) was 40 to 60 pg/mL.

As for `C[C@]12CCC(=O)C=C1CC[C@@H]1[C@@H]2[C@@H](O)C[C@@]2(C)[C@H]1CC[C@]2(O)C(=O)CO` [Hydrocortisone], the Enhancement factor is listed as 61.3 in data set [2] (enhancer: Azone), 25.23 in data set [2] (setting [6]), 4.57 in data set [2] (enhancer: Propyl myristate) and 5.01 in data set [2] (enhancer: Propyl oleate).

Turning to `COc1ccc2c(c1)c(CC(=O)O)c(C)n2C(=O)c1ccc(Cl)cc1` [Indomethacin], the Enhancement factor in data set [2] (enhancer: Azone) is 14.49; in data set [2] (setting [6]), 15.67; in data set [2] (enhancer: Propyl myristate), 3.77; in data set [2] (enhancer: Propyl oleate), 4.67.

On to `C#C[C@]1(O)CC[C@H]2[C@@H]3CCC4=CC(=O)CC[C@@H]4[C@H]3CC[C@@]21C` [Norethindrone, norethindrone], for which the “Serum Levels of Norethindrone (mean)” value in “clinical” was 0.093 ng/mL; in the data set “clinical” (topical or ocular, 2 h), 1.407 ng/mL; in the data set “clinical” (topical or ocular, 6 h), 1.394 ng/mL; in the data set “clinical” (topical or ocular, 12 h) it was 1.908 ng/mL; in “clinical” (topical or ocular, 24 h), 2.695 ng/mL; in the data set “clinical” (topical or ocular, 30 h), 3.461 ng/mL. The “Serum Levels of Norethindrone (mean)” value was found to be 3.096 ng/mL in the data set “clinical” (topical or ocular, 36 h); 3.713 ng/mL in “clinical” (topical or ocular, 48 h); 5.61 ng/mL in the data set “clinical” (topical or ocular, 54 h); 4.904 ng/mL in “clinical” (topical or ocular, 60 h); 4.899 ng/mL in the data set “clinical” (topical or ocular, 72 h).

`CC(=O)[C@H]1CC[C@H]2[C@@H]3CCC4=CC(=O)CC[C@]4(C)[C@H]3CC[C@]12C` [Progesterone]: the Enhancement factor is on record as 5.96 in data set [2] (enhancer: Azone), 11.04 in data set [2] (setting [6]), 4.56 in data set [2] (enhancer: Propyl myristate) and 5.36 in data set [2] (enhancer: Propyl oleate).

As for `CCCCCC(=O)O` [caproic acid], the “enhancement of skin permeation of progesterone by fatty acids” value in data set [2] (progesterone, saturated fatty acid chain length, Chien) is “major enhancement effect”.

For `CCCCCCCCCC(=O)O` [decanoic acid], the “enhancement for estradiol by fatty acids” value in data set [2] (estradiol, U.S. Pat. No. 5,145,682) is reported as “better enhancer for estradiol”.

With `CCOCCOCCO` [diethylene glycol monoethyl ether], the “penetration enhancement at early and late times (in words)” value in data set [4] was “excellent penetration enhancer at late times (16, 24 hs); also recorded: good penetration enhancer for late times; also recorded: enhances the permeation rates of the hormones in the later times”.

As to `CCCCCCCCCCCC(=O)O` [lauric acid], the “enhancer comparison for naloxone” value in data set [2] (naloxone, Brian and Walters) is given as “better enhancer than lauryl alcohol”.

On to `CCCCCCCCCCCCO` [lauryl alcohol], for which, in data set [4] (comparison of enhancers), the “norethindrone acetate permeation enhancement (in words)” value is reported as “two folds higher; also recorded: greater; also recorded: highest enhancement factor for norethindrone acetate; also recorded: most adequate enhancer”. In data set [4], the “penetration enhancement at early and late times (in words)” value is listed as “good penetration enhancer at early time (8 hs); also recorded: good penetration enhancer for early times; also recorded: higher enhancement factor in the early times”.

With `CCCCCCCCCCO` [n-decanol], in data set [4] (comparison of enhancers), the “norethindrone acetate permeation enhancement (in words)” value is recorded as “greater”.

Regarding `C#C[C@]1(OC(C)=O)CC[C@H]2[C@@H]3CCC4=CC(=O)CC[C@@H]4[C@H]3CC[C@@]21C` [norethindrone acetate], in data set [5], the “transdermal dose required to oppose estrogen hyperstimulation of the endometrium / therapeutically effective daily dose of progestin” value is 200 to 300 µg/day and 200 to 250 µg/day.

In the case of `CCCCCCCC/C=C\CCCCCCCCO` [oleyl alcohol], the “estradiol permeation enhancement (in words)” value in data set [4] (comparison of enhancers) is “highest enhancement factor for estradiol”.
